Test results published in patent US12673944B2, “Compounds having inhibitory activity against glucosylceramide synthase or pharmaceutically acceptable salt thereof, processes for preparing the same, and pharmaceutical compositions comprising the same” (YUHAN CORPORATION, priority 2019, dated 2026).
pIC50: −log10 of the molar value.

Experiments:
[1] = biological target: T1, glucosylceramide synthase (GCS) (Homo sapiens, UniProt Q16739); assay: GCS enzyme inhibition assay (A549 cell lysate, NBD C6-ceramide, HPLC fluorescence); format: biochemical; conditions: inhibitory activity against GCS, 37° C., 90 minutes
T1 construct: The obtained supernatant was used; host or cells: A549 cells (lysate supernatant after sonication)
T1 sequence (Q16739 1-394): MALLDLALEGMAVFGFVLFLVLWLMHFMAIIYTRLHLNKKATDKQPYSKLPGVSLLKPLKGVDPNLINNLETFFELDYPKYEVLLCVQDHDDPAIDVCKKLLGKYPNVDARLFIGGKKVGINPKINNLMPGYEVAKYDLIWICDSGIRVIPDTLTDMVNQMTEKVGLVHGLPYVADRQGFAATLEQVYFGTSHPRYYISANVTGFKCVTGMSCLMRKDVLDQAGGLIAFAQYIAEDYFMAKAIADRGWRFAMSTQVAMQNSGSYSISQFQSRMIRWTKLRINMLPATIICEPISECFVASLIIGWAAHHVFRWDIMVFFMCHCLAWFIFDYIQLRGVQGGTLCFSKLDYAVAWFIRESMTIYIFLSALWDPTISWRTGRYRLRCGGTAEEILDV
Summary of the method: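 A549 cell lysate (50 mM HEPES pH 7.3) served as GCS source; reactions ran 90 min at 37° C, were stopped with chloroform/methanol and lipids extracted. Activity taken as GlcCer/(Cer+GlcCer) peak area, normalised between DMSO and ibiglustat controls.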

[2] = test system: GM1 production in Jurkat cells; assay: cells; format: cell-based; conditions: Homo sapiens, Jurkat, 72 h

## COc1cccc(Cl)c1-c1ccc2c(c1)OCC(C)(C)C2NC(=O)O[C@@H]1CN2CCC1CC2 (stereo partly drawn) [Example 121, (S)-quinuclidin-3-yl (7-(2-chloro-6-methoxyphenyl)-3,3-dimethylchroman-4-yl)carbamate]
[1]
  pIC50: 8.57
[2]
  pIC50: 7.80

## CC1(C)COc2cc(-c3ccc(CC#N)cc3)ccc2C1NC(=O)O[C@@H]1CN2CCC1CC2 (stereo partly drawn) [Example 280, (S)-quinuclidin-3-yl (7-(4-(cyanomethyl)phenyl)-3,3-dimethylchroman-4-yl)carbamate]
[1]
  pIC50: 9.21
[2]
  pIC50: 8.03

## COc1ccc(-c2ccc3c(c2)OCCC3NC(=O)O[C@@H]2CN3CCC2CC3)cc1C(F)(F)F (stereo partly drawn) [Example 83, (S)-quinuclidin-3-yl (7-(4-methoxy-3-(trifluoromethyl)phenyl)chroman-4-yl)carbamate]
[1]
  pIC50: 8.41
[2]
  pIC50: 7.71

## O=C(NC1CCOc2cc(-c3cccc4cccnc34)ccc21)O[C@@H]1CN2CCC1CC2 (stereo partly drawn) [Example 56, (S)-quinuclidin-3-yl (7-(quinolin-8-yl)chroman-4-yl)carbamate]
[1]
  pIC50: 8.86
[2]
  pIC50: 8.22

## O=C(NC1CCOc2cc(-c3cc(F)c(F)cc3F)ccc21)O[C@@H]1CN2CCC1CC2 (stereo partly drawn) [Example 31, (S)-quinuclidin-3-yl (7-(2,4,5-trifluorophenyl)chroman-4-yl)carbamate]
[1]
  pIC50: 8.49
[2]
  pIC50: 7.56

## Cc1ccc(-c2ccc3c(c2)OCC(C)(C)C3NC(=O)O[C@@H]2CN3CCC2CC3)c(F)n1 (stereo partly drawn) [Example 248, (S)-quinuclidin-3-yl (7-(2-fluoro-6-methylpyridin-3-yl)-3,3-dimethylchroman-4-yl)carbamate]
[1]
  pIC50: 9.07
[2]
  pIC50: 7.53

## O=C(NC1CCOc2cc(-c3ccc(N4CCOCC4)c(Cl)c3)ccc21)O[C@@H]1CN2CCC1CC2 (stereo partly drawn) [Example 76, (S)-quinuclidin-3-yl (7-(3-chloro-4-morpholinophenyl)chroman-4-yl)carbamate]
[1]
  pIC50: 8.71
[2]
  pIC50: 7.53

## O=C(NC1CCOc2cc(-c3ccc(F)c(F)c3F)ccc21)O[C@@H]1CN2CCC1CC2 (stereo partly drawn) [Example 30, (S)-quinuclidin-3-yl (7-(2,3,4-trifluorophenyl)chroman-4-yl)carbamate]
[1]
  pIC50: 8.41
[2]
  pIC50: 7.32

## COc1ccc(Cl)c(-c2cc3c(cc2F)C(NC(=O)O[C@@H]2CN4CCC2CC4)C(C)(C)CO3)c1 (stereo partly drawn) [Example 340, (S)-quinuclidin-3-yl (7-(2-chloro-5-methoxyphenyl)-6-fluoro-3,3-dimethylchroman-4-yl)carbamate]
[1]
  pIC50: 9.32
[2]
  pIC50: 8.62

## CC1(C)COc2cc(-c3ccc(C(F)(F)F)cc3F)ccc2C1NC(=O)O[C@@H]1CN2CCC1CC2 (stereo partly drawn) [Example 262, (S)-quinuclidin-3-yl (7-(2-fluoro-4-(trifluoromethyl)phenyl)-3,3-dimethylchroman-4-yl)carbamate]
[1]
  pIC50: 9.28
[2]
  pIC50: 8.43

## CCc1ccc(-c2cc3c(cc2F)C(NC(=O)O[C@@H]2CN4CCC2CC4)C(C)(C)CO3)cc1 (stereo partly drawn) [Example 334, (S)-quinuclidin-3-yl (7-(4-ethylphenyl)-6-fluoro-3,3-dimethylchroman-4-yl)carbamate]
[1]
  pIC50: 9.48
[2]
  pIC50: 9.40

## CC1(C)COc2cc(-c3ccsc3)c(F)cc2C1NC(=O)O[C@@H]1CN2CCC1CC2 (stereo partly drawn) [Example 338, (S)-quinuclidin-3-yl (6-fluoro-3,3-dimethyl-7-(thiophen-3-yl)chroman-4-yl)carbamate]
[1]
  pIC50: 9.72
[2]
  pIC50: 8.48

## CC(C)c1cccc(-c2ccc3c(c2)COCC3NC(=O)O[C@@H]2CN3CCC2CC3)c1 (stereo partly drawn) [Example 313, (S)-quinuclidin-3-yl (7-(3-isopropylphenyl)isochroman-4-yl)carbamate]
[1]
  pIC50: 8.41
[2]
  pIC50: 7.46

## COc1cccc(-c2ccc3c(c2)OCCC3NC(=O)O[C@@H]2CN3CCC2CC3)c1Cl (stereo partly drawn) [Example 67, (S)-quinuclidin-3-yl (7-(2-chloro-3-methoxyphenyl)chroman-4-yl)carbamate]
[1]
  pIC50: 9.03
[2]
  pIC50: 7.95

## CC1(C)COc2cc(-c3ccc(F)nc3F)ccc2C1NC(=O)O[C@@H]1CN2CCC1CC2 (stereo partly drawn) [Example 278, (S)-quinuclidin-3-yl (7-(2,6-difluoropyridin-3-yl)-3,3-dimethylchroman-4-yl)carbamate]
[1]
  pIC50: 8.66
[2]
  pIC50: 7.91

## O=C(NC1CCOc2ccc(-c3ccccc3F)cc21)O[C@@H]1CN2CCC1CC2 (stereo partly drawn) [Example 87, (S)-quinuclidin-3-yl (6-(2-fluorophenyl)chroman-4-yl)carbamate]
[1]
  pIC50: 8.45
[2]
  pIC50: 7.01

## CC1(NC(=O)O[C@@H]2CN3CCC2CC3)CCOc2cc(-c3cccc(OC(F)(F)F)c3)ccc21 (stereo partly drawn) [Example 306, (S)-quinuclidin-3-yl (4-methyl-7-(3-(trifluoromethoxy)phenyl)chroman-4-yl)carbamate]
[1]
  pIC50: 9.30
[2]
  pIC50: 8.52

## COc1ccc(-c2ccc3c(c2)OCC(C)(C)C3NC(=O)O[C@@H]2CN3CCC2CC3)cn1 (stereo partly drawn) [Example 241, (S)-quinuclidin-3-yl (7-(6-methoxypyridin-3-yl)-3,3-dimethylchroman-4-yl)carbamate]
[1]
  pIC50: 9.09
[2]
  pIC50: 7.62

## Cc1ccc(-c2ccc3c(c2)OCCC3NC(=O)O[C@@H]2CN3CCC2CC3)cc1C#N (stereo partly drawn) [Example 78, (S)-quinuclidin-3-yl (7-(3-cyano-4-methylphenyl)chroman-4-yl)carbamate]
[1]
  pIC50: 8.90
[2]
  pIC50: 7.56
